The test system of this test is L1210 leukemia ip in BDF1 mice, survival T/C. As to the kind of experiment: NCI In Vivo Anticancer Drug Screen. Data for tumor model L1210 Leukemia (intraperitoneal) in B6D2F1 (BDF1) mice. Particulars: endpoint: mean survival time, higher = longer survival. The method in brief:
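Read-out is survival time, reported as the treated-group measurement over the vehicle-control measurement.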

Setting [1] is: dose: 100.0 mg/kg/injection, schedule: Q01DX001 (ip), vehicle: Klucel (hydroxypropylcellulose) (HPC).
Setting [2] is: dose: 100.0 mg/kg/injection, schedule: Q01DX009 (ip), vehicle: Klucel (hydroxypropylcellulose) (HPC).
[3] abbreviates: dose: 100.0 mg/kg/injection, schedule: Q04DX003 (ip), vehicle: Klucel (hydroxypropylcellulose) (HPC).
Setting [4] is: dose: 200.0 mg/kg/injection, schedule: Q01DX001 (ip), vehicle: Klucel (hydroxypropylcellulose) (HPC).
The mark [5] stands for this setting: dose: 200.0 mg/kg/injection, schedule: Q04DX003 (ip), vehicle: Klucel (hydroxypropylcellulose) (HPC).
[6] abbreviates: dose: 400.0 mg/kg/injection, schedule: Q01DX009 (ip), vehicle: Klucel (hydroxypropylcellulose) (HPC).
Where [7] appears, read: dose: 400.0 mg/kg/injection, schedule: Q04DX003 (ip), vehicle: Klucel (hydroxypropylcellulose) (HPC).
Setting [8] is: dose: 100.0 mg/kg/injection, schedule: Q01DX001 (ip), vehicle: carboxymethylcellulose (CMC).
The mark [9] stands for this setting: dose: 200.0 mg/kg/injection, schedule: Q01DX001 (ip), vehicle: carboxymethylcellulose (CMC).
[10] abbreviates: dose: 400.0 mg/kg/injection, schedule: Q01DX001 (ip), vehicle: carboxymethylcellulose (CMC).
[11] abbreviates: dose: 100.0 mg/kg/injection, schedule: Q01DX001 (ip), vehicle: saline.
Setting [12] is: dose: 200.0 mg/kg/injection, schedule: Q01DX001 (ip), vehicle: saline.

The record followed here is PubChem BioAssay AID248 (DTP/NCI, 2004).

“And” between values parts separate entries of the source, which are not always exact repeats. Identical values can stand only once. Inconclusive results and toxic doses are left out.

With `CC(=O)NC1CCC2CCCCC2C1` (stereo not drawn), the T/C was 97 % of control under setting [1]; 103 % of control under setting [2]; 97 % of control under setting [3]; 101 % of control under setting [4]; 95 % of control (dose: 200.0 mg/kg/injection, schedule: Q01DX009 (ip), vehicle: Klucel (hydroxypropylcellulose) (HPC)); 99 % of control under setting [5]. The T/C (dose: 400.0 mg/kg/injection, schedule: Q01DX001 (ip), vehicle: Klucel (hydroxypropylcellulose) (HPC)) was 101 % of control; the T/C under setting [6] is 98 % of control; the T/C under setting [7] is 96 % of control.
Regarding `CCOC(=O)c1[nH]cnc1/N=N/N(C)CCO`, the T/C is, setting by setting: (dose: 50.0 mg/kg/injection, schedule: Q01DX009 (ip), vehicle: Klucel (hydroxypropylcellulose) (HPC)) 122 % of control; (dose: 90.0 mg/kg/injection, schedule: Q01DX009 (ip), vehicle: Klucel (hydroxypropylcellulose) (HPC)) 116 % of control; under setting [8], 115 % of control; under setting [2], 117 % of control; under setting [3], 109 % of control and 115 % of control; (dose: 175.0 mg/kg/injection, schedule: Q01DX009 (ip), vehicle: saline) 152 % of control. The T/C under setting [9] is 102 % of control; the T/C under setting [5] is 108 % of control and 121 % of control; the T/C under setting [10] is 107 % of control; the T/C under setting [6] is 150 % of control and 154 % of control; the T/C under setting [7] is 124 % of control; the T/C (dose: 600.0 mg/kg/injection, schedule: Q01DX009 (ip), vehicle: saline) is 154 % of control.
With `CC[P+](CC)(CC)CCCCI`, the T/C is 94 % of control (dose: 12.0 mg/kg/injection, schedule: Q01DX009 (ip), vehicle: saline); 101 % of control (dose: 25.0 mg/kg/injection, schedule: Q01DX009 (ip), vehicle: saline); 105 % of control (dose: 25.0 mg/kg/injection, schedule: Q04DX003 (ip), vehicle: saline); 101 % of control and 91 % of control (dose: 50.0 mg/kg/injection, schedule: Q01DX009 (ip), vehicle: saline); 114 % of control (dose: 50.0 mg/kg/injection, schedule: Q04DX003 (ip), vehicle: saline).
As for `S=C(Nc1ccccc1)N1CCN2CCCCC2C1` (stereo not drawn), the T/C runs as follows: (dose: 75.0 mg/kg/injection, schedule: Q01DX001 (ip), vehicle: acetone) 100 % of control; (dose: 150.0 mg/kg/injection, schedule: Q01DX001 (ip), vehicle: acetone) 107 % of control; (dose: 300.0 mg/kg/injection, schedule: Q01DX001 (ip), vehicle: acetone) 92 % of control.
As to `CCOc1ccc(N=Nc2c(O)n(-c3ccccc3OC)c(=S)n(-c3ccccc3OC)c2=O)cc1`, the T/C reads like this: (dose: 75.0 mg/kg/injection, schedule: Q01DX003 (ip), vehicle: Klucel (hydroxypropylcellulose) (HPC)) 96 % of control; (dose: 100.0 mg/kg/injection, schedule: Q01DX003 (ip), vehicle: Klucel (hydroxypropylcellulose) (HPC)) 96 % of control; (dose: 200.0 mg/kg/injection, schedule: Q01DX003 (ip), vehicle: Klucel (hydroxypropylcellulose) (HPC)) 91 % of control.
With `CCc1nc(=S)c2ncn(CC)c2[nH]1`, the T/C by setting is: (dose: 100.0 mg/kg/injection, schedule: Q04DX003 (ip), vehicle: saline with Tween-80) 106 % of control; (dose: 200.0 mg/kg/injection, schedule: Q04DX003 (ip), vehicle: saline with Tween-80) 96 % of control; (dose: 400.0 mg/kg/injection, schedule: Q04DX003 (ip), vehicle: saline with Tween-80) 90 % of control.
`O=C(CSc1cc(Cl)ccc1Cl)Nc1ccccc1`: the T/C was 95 % of control (dose: 100.0 mg/kg/injection, schedule: Q01DX001 (ip), vehicle: other); 96 % of control (dose: 200.0 mg/kg/injection, schedule: Q01DX001 (ip), vehicle: other); 96 % of control (dose: 400.0 mg/kg/injection, schedule: Q01DX001 (ip), vehicle: other).
As to `Cc1ccc(COP(=O)(c2ccccc2)c2ccccc2)cc1`, the T/C reads like this: (dose: 66.0 mg/kg/injection, schedule: Q01DX001 (ip), vehicle: Klucel (hydroxypropylcellulose) (HPC)) 98 % of control; under setting [1], 93 % of control; (dose: 150.0 mg/kg/injection, schedule: Q01DX001 (ip), vehicle: Klucel (hydroxypropylcellulose) (HPC)) 97 % of control; under setting [4], 91 % of control.
Regarding `CCCCCC[Si](Cl)(Cl)Cl`, the T/C by setting is: (dose: 75.0 mg/kg/injection, schedule: Q01DX001 (ip), vehicle: saline) 101 % of control; (dose: 150.0 mg/kg/injection, schedule: Q01DX001 (ip), vehicle: saline) 91 % of control.
On to `S=c1c2ccccc2oc2ccccc12`, for which the T/C by setting is: (dose: 50.0 mg/kg/injection, schedule: Q04DX002 (ip), vehicle: saline with Tween-80) 93 % of control; (dose: 100.0 mg/kg/injection, schedule: Q04DX002 (ip), vehicle: saline with Tween-80) 93 % of control; (dose: 200.0 mg/kg/injection, schedule: Q04DX002 (ip), vehicle: saline with Tween-80) 87 % of control; (dose: 400.0 mg/kg/injection, schedule: Q04DX002 (ip), vehicle: saline with Tween-80) 97 % of control.
As for `CCN(CCO)c1ccc(N)cc1C`, the T/C by setting is: (dose: 0.5 mg/kg/injection, schedule: Q04DX003 (ip), vehicle: saline) 97 % of control; (dose: 1.0 mg/kg/injection, schedule: Q04DX003 (ip), vehicle: saline) 95 % of control; (dose: 2.0 mg/kg/injection, schedule: Q04DX003 (ip), vehicle: saline) 97 % of control; (dose: 6.25 mg/kg/injection, schedule: Q04DX003 (ip), vehicle: saline) 88 % of control; (dose: 12.5 mg/kg/injection, schedule: Q04DX003 (ip), vehicle: saline) 102 % of control.
For `Cc1cc2c(cc1C)=NC(=Nc1nc(O)c(O)[nH]1)N=2`, the T/C is, setting by setting: under setting [3], 98 % of control; under setting [5], 96 % of control; under setting [7], 91 % of control.
On to `Cn1/c(=N/N)sc2ccccc21.Cn1/c(=N/N)sc2ccccc21.Cn1/c(=N/N)sc2ccccc21.Cn1/c(=N\N)sc2ccccc21.[Cl][Rh][Cl]`, for which the T/C is, setting by setting: (dose: 3.13 mg/kg/injection, schedule: Q04DX003 (ip), vehicle: distilled water + Tween-80) 100 % of control; (dose: 6.25 mg/kg/injection, schedule: Q04DX003 (ip), vehicle: distilled water + Tween-80) 98 % of control; (dose: 12.5 mg/kg/injection, schedule: Q04DX003 (ip), vehicle: distilled water + Tween-80) 101 % of control; (dose: 25.0 mg/kg/injection, schedule: Q04DX003 (ip), vehicle: distilled water + Tween-80) 101 % of control; (dose: 50.0 mg/kg/injection, schedule: Q04DX003 (ip), vehicle: distilled water + Tween-80) 93 % of control; (dose: 100.0 mg/kg/injection, schedule: Q04DX003 (ip), vehicle: distilled water + Tween-80) 90 % of control. For the same compound, where the note is “dose: 200.0 mg/kg/injection, schedule: Q04DX003 (ip), vehicle: distilled water + Tween-80”, the T/C was 95 % of control.
Consider `CN1CC(=O)N=C1N`, for which the T/C by setting is: under setting [11], 92 % of control; under setting [12], 103 % of control; (dose: 200.0 mg/kg/injection, schedule: Q01DX015 (ip), vehicle: saline) 91 % of control; (dose: 250.0 mg/kg/injection, schedule: Q#A X Z (ip), vehicle: water) 109 % of control; (dose: 400.0 mg/kg/injection, schedule: Q01DX001 (ip), vehicle: saline) 92 % of control; (dose: 400.0 mg/kg/injection, schedule: Q01DX015 (ip), vehicle: saline) 121 % of control. In addition, the T/C was 100 % of control (dose: 500.0 mg/kg/injection, schedule: Q#A X Z (ip), vehicle: water); 94 % of control (dose: 800.0 mg/kg/injection, schedule: Q01DX015 (ip), vehicle: saline); 100 % of control (dose: 1250.0 mg/kg/injection, schedule: Q#A X Z (ip), vehicle: water); 100 % of control (dose: 1600.0 mg/kg/injection, schedule: Q01DX015 (ip), vehicle: saline).
On to `N=c1nc(N)c([N+](=O)[O-])c(N)n1O`, for which the T/C under setting [8] was 100 % of control, the T/C under setting [9] is 97 % of control and the T/C under setting [10] is 100 % of control.
As for `CN(C)CC(O)c1ccc2oc3ccccc3c2c1` (stereo not drawn), the T/C was 90 % of control under setting [11] and 97 % of control under setting [12].
